{
  "source": "paper PMC10425210",
  "about": "(The Journal of Clinical Investigation, 2023)",
  "tested_on": "SHIV-SF162P3",
  "assay": "Antiviral assay in rhesus PBMCs acutely infected with SHIV.SF162P3",
  "assay_type": "cell-based, rhesus macaque",
  "conditions": "for SHIV Replication (Mean): representative assay, N 3",
  "method": "Freshly isolated PBMCs from 3 male Indian rhesus macaque (Macaca mulatta) donors were obtained from Human Cells Biosciences. Rhesus PBMCs were cultured in RPMI-1640 cell culture media (Life Technologies) supplemented with 10% heat-inactivated FBS (Hyclone), 2 mM glutamine, and 100 units/mL penicillin plus 100 μg/mL streptomycin (complete RPMI). Prior to their use in antiviral assays, PBMCs from 3 independent donors were pooled and activated at a density of 3 × 10^6 cells per mL for 72 hours at 37°C by addition of 1 μg/mL PHA (Sigma-Aldrich) and 50 units/mL recombinant human IL-2 (Roche Diagnostics).\nBriefly, PHA/IL-2–stimulated rhesus PBMCs were infected in bulk culture with SHIV.SF162P3 at a concentration of 130 pg p27 equivalent per million PBMCs. Cells were maintained in suspension by gently rocking the cultures mixed with virus inoculum for 3 hours at 37°C. Cells were then pelleted by centrifugation at 500g for 5 minutes, washed twice with complete RPMI to remove any unadsorbed virus, and seeded into 96-well plates at a cell density of 2 × 10^5 cells per well in 100 μL. […] Cultures were incubated in a 5% CO2 incubator at 37°C for 7 days. The cell-free supernatants derived from the PBMC cultures were harvested 7 days after infection, and the amount of SHIV present was quantified using a SIV p27 antigen capture ELISA assay (item 5436, Advanced Bioscience Laboratories Inc.) performed according to the manufacturer’s protocol.",
  "note": "Several values for one entry are separate records, joined by “and”; a condition that tells them apart may be missing. Equal entries are not always repeated.",
  "data": [
    {"compound": "CC(C)(C#Cc1ccc(-c2ccc(Cl)c3c(NS(C)(=O)=O)nn(CC(F)(F)F)c23)c([C@H](Cc2cc(F)cc(F)c2)NC(=O)Cn2nc(C(F)(F)F)c3c2C(F)(F)[C@@H]2C[C@H]32)n1)S(C)(=O)=O", "note": "[LEN, Lenacapavir]", "values": [
      {"measurement": "SHIV Replication (Mean)", "setting": "LEN 0.011 nM", "value": 98},
      {"measurement": "SHIV Replication (Mean)", "setting": "LEN 0.034 nM", "value": 91},
      {"measurement": "SHIV Replication (Mean)", "setting": "LEN 0.103 nM", "value": 99},
      {"measurement": "SHIV Replication (Mean)", "setting": "LEN 0.309 nM", "value": 60},
      {"measurement": "SHIV Replication (Mean)", "setting": "LEN 0.926 nM", "value": 18},
      {"measurement": "SHIV Replication (Mean)", "setting": "LEN 2.778 nM", "value": 1},
      {"measurement": "SHIV Replication (Mean)", "setting": "LEN 8.333 nM", "value": 0},
      {"measurement": "SHIV Replication (Mean)", "setting": "LEN 25 nM", "value": 0},
      {"measurement": "EC50", "setting": "Macaca mulatta, PBMC, 168 h", "value": "0.39 ± 0.16", "unit": "nM"},
      {"measurement": "paEC95 (protein-adjusted EC95)", "setting": "SHIV, rhesus PBMCs, EC95 x rhesus plasma shift", "value": "8.80 nM and 8.8 nM and 8.80 ± 3.69^E nM"},
      {"measurement": "EC95", "setting": "SHIV-SF162P3, rhesus PBMCs, EC95 = EC50 x (95/5)^1/n", "value": "0.91 nM and 0.91 ± 0.38 nM"}
    ]}
  ]
}
